Test results taken from patent US20260287575A1, “LABEL-FREE METHODS FOR ASSESSING CELL STATE IN A BIOLOGICAL SAMPLE” (priority 2023, published 2026).

What was measured:
[1] = tested on: CT26 live tumor fragments; test: FLIM lifetime metabolic ratio (LMR) with ground truth dyes (PI, caspase 3/7) in CT26 live tumor fragments; type: cell-based, murine; conditions: for shift in the LMR relative to time zero healthy tissue: normalized LMR; for mode of cell death induced: confirmed with Caspase 3/7 and PI probes
Description: Live tumor fragments (LTFs) from flank expressed murine syngeneic CT26 tumors were used to assess cell state using a combination of OCM/dOCM and FLIM as described herein.
CT26 tumors were excised, bisected, and cut into 300×300×300 μm LTFs. These fragments were sorted into 18-well plates for analysis by microscopy. Fragments were incubated at 37° C. in 5% CO2 in non-phenol red containing RPMI for up to four hours before being placed in the microscope. During imaging the sample was maintained in a stage-top incubator at 37° C., 5% CO2, and 95% humidity. Images were taken using a custom four channel multi-photon microscope built on a modified Zeiss Axiovert platform using adapted Bruker components, the PrairieView software package, and electronic components to drive and control the scanning microscope. FLIM data was acquired using an 8 channel Swabian instruments time tagger.
FLIM images were acquired at 50 micron and 75 micron depths into the tissue. Live tumor fragment structure and metabolic status were assessed based on the intrinsically fluorescent metabolic co-factors […] (NAD(P)H), excited at 740 nm, and flavin adenine dinucleotide (FAD), excited at 880 nm. […] LMR histogram data from the fragments was normalized by taking the mode of the resultant histogram data at baseline from healthy tissue and setting this value to 0 across the time course. Data derived from the NAD(P)H, and FAD signals were used to segment the image into individual Voronoi cells seeded from nuclear segmentation. The normalized LMR value was determined for each Voronoi cell.
To qualify observed shifts in the LMR, the ground truth nuclear localizing dyes for cleaved caspase 3/7 activity (Invitrogen) or necrosis (propidium iodide) were added. Voronoi cells that stained positive for propidium iodide were marked as dead and those that were not stained with PI were marked as live.
Cell death via apoptosis was induced using staurosporine. […] (FIG. 8). […] Probe data from Caspase 3/7 and P1 confirmed the shift for LMR values indicating live tissue vs. dead tissue. Cell death via necroptosis was induced using Shikonin. […] PI confirmed the necroptosis signature.
To validate the imaging routine in a model with clinical relevancy, CT26 mLTFs were treated with a combination of […] (3MA) and doxorubicin over a duration of 48 hours (FIG. 10). For this, mLTFs were imaged every 24 hours following treatment for longitudinal assessment of chemotherapeutic efficacy. Linear metabolic shift values obtained in separate CT26 control experiments were applied to Voronoi segmented images to classify individual cells as alive or dead. Data were plotted in a time course indicating the activity of the drug combination.

[2] = tested on: mouse liver; test: Multimodal dOCM and FLIM imaging of tissue viability in mouse liver after shikonin injection; type: cell-based; conditions: 100 nL, 6 μM, injected into the center of the tissue; PI staining
Description: 100 nL shikonin (6 μM) was injected into the center of the tissue to create necroptosis indicted by the white arrow. Scale bar: 100 μm. […] LMR values are indicated by the color bar.

[3] = tested on: mouse liver slice; test: dOCM imaging of live and dead cells in a mouse liver slice after local staurosporine injection; type: cell-based; conditions: local injection of 200 nL, 2 μM in DMSO; 300 μm thick liver slice
From the text: A 300 μm thick slice of liver is shown. […] Live cells in the live region (lower part in the xy plane) are highlighted in the dOCM image volume. The live cells show high contrast compared to dead regions in the three orthogonal views (xy, yz, and xz planes). The positions of the yz and xz slices are indicated by the yellow lines in the xy plane. Scale bar: 100 μm.
Live cells were visible in the dOCM image volume. […] Good correlation is observed between the dOCM signal and the expected LMR signatures in this monolithic tissue (FIG. 3). […] In those areas, the dOCM is used to establish a ground truth for living tissue that can in turn be used to qualify the LMR and set specific discreet baseline LMR values for living tissue in these regions. This is as opposed to using a generic, specific value determined with an assumption that the tissue is monolithic.

[4] = tested on: primary human lung cancer tissue; test: Combined dOCM and FLIM imaging of tissue viability in a primary human lung cancer tissue slice; type: cell-based; conditions: 10 μM
Description: (§1) FIG. 16 presents multimodal imaging of tissue viability with primary human lung cancer tissue using combined dOCM and FLIM. (a) dOCM and LMR images of a human lung cancer tissue slice. (b) dOCM and LMR images of another lung tissue slice from the same sample. The metabolic state of this sample is different from the tissue slice in (a). (c) The tissue slice in (a) was treated with 10 μM staurosporine. The slice was imaged 24 hours after treatment. […] Scale bar: 100 μm.
as §1, with “bar” for “bar:”

## Cn1cnc(N)c2ncnc1-2 [3-MA]
[1]; CT26 live tumor fragment (FIG. 6)
  PI staining: dead cells
[1]; CT26 live tumor fragment treated and stained with PI (FIG. 6)
  LMR values of PI-stained cells: relatively uniform low LMR values

## CC(C)=CC[C@@H](O)C1=CC(=O)c2c(O)ccc(O)c2C1=O [Shikonin]
[2]
  mode of cell death created: necroptosis
[1]; CT26 LTFs
  shift in the LMR relative to time zero healthy tissue: large, reproducible shift to the left
  mode of cell death induced: necroptosis
[1]; CT26 LTFs, stressed tissue
  Caspase 3/7 staining: little to no Caspase 3/7 staining

## CN[C@@H]1C[C@H]2O[C@@](C)([C@@H]1OC)n1c3ccccc3c3c4c(c5c6ccccc6n2c5c31)C(=O)NC4 [staurosporine]
[3]
  tissue viability by dOCM: caused tissue death
[1]; CT26 LTFs
  shift in the LMR relative to time zero healthy tissue: large, reproducible shift to the right
  mode of cell death induced: apoptosis
[4]; 24 hours after treatment
  cell state indicated by NADH and FAD phasor plots: undergoing apoptosis
  metabolic state (LMR) compared to that prior to treatment: shifted
[4]; imaged 24 hours after treatment
  viable cells revealed by dOCM: Less viable cells
